Laboratory results as given in patent US12187742B2 (XRAD Therapeutics, Inc., priority 2018, dated 2025).
Counter-ions that a name gives are not always drawn.

Tests used:
DNA-PK = DNA-PK (Homo sapiens (Human), UniProt P78527); experiment: DNA-PK Enzyme-Linked Immunosorbent Assay (phosphorylation of GST-p53 (1-101) peptide); format: biochemical; details: ELISA, 20 μM ATP
Method in brief: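 ELISA with plate-bound GST-p53 (1-101) phosphorylated by DNA-PK (0.1 μg/mL final) with 20 μM ATP for 1 h at 25 °C. Compounds tested over 10 3-fold doses from 100 nM top final. Phospho-p53 Ser15 detected by antibody, HRP and TMB, absorbance at 450 nm.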

ATM = ATM (Homo sapiens (Human), UniProt Q13315); experiment: ATM in Cell Western Assay (pKAP1 in etoposide-treated MCF-7 cells); format: cell-based; details: pKAP1 in etoposide-treated MCF-7 cells
Chain of ATM (Q13315 whole entry): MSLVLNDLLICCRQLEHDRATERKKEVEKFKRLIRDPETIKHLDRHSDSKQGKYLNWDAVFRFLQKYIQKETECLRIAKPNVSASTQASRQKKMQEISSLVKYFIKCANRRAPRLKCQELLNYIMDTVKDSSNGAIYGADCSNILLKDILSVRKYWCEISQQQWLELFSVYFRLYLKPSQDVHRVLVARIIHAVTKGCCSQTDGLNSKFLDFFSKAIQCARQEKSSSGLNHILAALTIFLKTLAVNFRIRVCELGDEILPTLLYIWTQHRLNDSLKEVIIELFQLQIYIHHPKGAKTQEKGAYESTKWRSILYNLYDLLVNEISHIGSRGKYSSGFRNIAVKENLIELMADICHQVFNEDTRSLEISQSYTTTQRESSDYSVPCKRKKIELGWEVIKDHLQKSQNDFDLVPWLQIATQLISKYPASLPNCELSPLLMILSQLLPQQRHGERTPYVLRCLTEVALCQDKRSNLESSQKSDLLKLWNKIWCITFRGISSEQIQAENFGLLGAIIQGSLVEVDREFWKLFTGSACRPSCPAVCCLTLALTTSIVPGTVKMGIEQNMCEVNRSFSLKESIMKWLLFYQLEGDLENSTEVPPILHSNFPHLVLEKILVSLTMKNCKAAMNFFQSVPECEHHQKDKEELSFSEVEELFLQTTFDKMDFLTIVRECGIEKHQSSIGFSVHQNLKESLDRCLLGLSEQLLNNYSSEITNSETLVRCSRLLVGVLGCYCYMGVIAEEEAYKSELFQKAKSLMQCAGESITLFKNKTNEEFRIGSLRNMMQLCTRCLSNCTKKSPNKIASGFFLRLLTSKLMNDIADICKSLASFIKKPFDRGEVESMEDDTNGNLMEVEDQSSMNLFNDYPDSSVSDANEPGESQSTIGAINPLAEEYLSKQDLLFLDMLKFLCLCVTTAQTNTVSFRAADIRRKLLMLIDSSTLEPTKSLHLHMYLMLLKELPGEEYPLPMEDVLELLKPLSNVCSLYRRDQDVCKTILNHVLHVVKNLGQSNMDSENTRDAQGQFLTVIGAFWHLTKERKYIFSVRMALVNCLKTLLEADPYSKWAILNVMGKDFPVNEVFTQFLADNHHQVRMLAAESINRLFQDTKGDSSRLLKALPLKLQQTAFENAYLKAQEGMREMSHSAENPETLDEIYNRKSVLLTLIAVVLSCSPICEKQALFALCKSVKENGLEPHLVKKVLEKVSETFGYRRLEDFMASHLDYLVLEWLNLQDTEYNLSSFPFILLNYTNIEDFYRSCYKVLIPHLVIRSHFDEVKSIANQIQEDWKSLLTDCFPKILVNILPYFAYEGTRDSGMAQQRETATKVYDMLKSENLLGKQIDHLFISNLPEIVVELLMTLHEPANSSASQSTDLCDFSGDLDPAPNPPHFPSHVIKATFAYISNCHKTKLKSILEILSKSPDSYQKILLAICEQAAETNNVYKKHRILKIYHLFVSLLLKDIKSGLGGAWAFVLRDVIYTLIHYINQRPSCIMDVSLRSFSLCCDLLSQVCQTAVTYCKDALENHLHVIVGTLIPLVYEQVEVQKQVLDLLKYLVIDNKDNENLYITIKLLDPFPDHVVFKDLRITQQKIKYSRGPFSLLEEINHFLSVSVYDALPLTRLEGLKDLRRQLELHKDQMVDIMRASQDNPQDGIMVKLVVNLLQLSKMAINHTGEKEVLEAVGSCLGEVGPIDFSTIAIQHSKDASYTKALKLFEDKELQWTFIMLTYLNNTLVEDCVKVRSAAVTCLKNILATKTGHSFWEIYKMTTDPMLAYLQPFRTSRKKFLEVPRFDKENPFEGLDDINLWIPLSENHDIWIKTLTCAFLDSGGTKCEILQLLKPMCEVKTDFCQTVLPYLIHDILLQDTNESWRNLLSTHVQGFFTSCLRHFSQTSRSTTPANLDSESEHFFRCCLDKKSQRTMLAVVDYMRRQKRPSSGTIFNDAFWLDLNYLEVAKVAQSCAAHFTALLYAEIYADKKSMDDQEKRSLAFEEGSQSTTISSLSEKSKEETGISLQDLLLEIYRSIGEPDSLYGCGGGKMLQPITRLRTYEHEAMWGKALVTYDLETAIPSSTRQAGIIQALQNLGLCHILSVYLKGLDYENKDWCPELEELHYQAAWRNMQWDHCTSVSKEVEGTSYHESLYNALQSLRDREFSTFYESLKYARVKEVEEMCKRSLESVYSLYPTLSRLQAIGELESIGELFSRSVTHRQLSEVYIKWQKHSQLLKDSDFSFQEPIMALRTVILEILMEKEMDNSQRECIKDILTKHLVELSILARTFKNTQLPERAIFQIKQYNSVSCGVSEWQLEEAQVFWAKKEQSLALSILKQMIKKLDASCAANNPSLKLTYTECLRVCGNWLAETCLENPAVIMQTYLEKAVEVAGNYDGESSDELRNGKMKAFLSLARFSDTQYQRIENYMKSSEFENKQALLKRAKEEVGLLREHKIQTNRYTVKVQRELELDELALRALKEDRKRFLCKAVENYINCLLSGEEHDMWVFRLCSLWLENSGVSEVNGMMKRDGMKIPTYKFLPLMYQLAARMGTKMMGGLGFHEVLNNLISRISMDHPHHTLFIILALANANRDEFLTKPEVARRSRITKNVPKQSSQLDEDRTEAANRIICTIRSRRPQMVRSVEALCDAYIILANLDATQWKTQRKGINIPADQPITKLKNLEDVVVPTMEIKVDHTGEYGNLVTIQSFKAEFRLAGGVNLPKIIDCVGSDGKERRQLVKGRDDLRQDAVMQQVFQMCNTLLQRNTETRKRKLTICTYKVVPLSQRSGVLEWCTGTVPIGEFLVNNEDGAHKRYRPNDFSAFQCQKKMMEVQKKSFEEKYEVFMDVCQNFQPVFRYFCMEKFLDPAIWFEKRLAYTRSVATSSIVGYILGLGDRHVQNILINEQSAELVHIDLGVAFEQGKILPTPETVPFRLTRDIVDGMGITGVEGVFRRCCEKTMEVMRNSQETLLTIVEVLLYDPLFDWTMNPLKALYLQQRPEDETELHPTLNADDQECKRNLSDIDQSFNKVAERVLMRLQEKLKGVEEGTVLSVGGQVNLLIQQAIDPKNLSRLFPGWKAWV
Method in brief: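 Cells received compounds in a 10-dose, 3-fold series from a 1 μM final top concentration, then 100 μM etoposide, for 1 hr at 37° C. They were then fixed with paraformaldehyde and permeabilized with 0.1% Triton X-100. After immunostaining, plates were scanned on an infrared imager.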

| SMILES | IC50 (DNA-PK) | IC50 (ATM) |
| --- | --- | --- |
| COc1ccc([C@H]2C[C@]3(C2)C(=O)N(C)c2cnc4cc(F)c(-c5cnc(OCCNC(C)C)c(NS(C)(=O)=O)c5)cc4c23)cc1 [Example 420, cis-N-(5-(7′-Fluoro-3-(4-methoxyphenyl)-3-methyl-2′-oxo-2′,3′-dihydrospiro[cyclobulane-1,1′-pyrrolo[2,3-c]quinolin]-8′-yl)-2-(2-(isopropylamino)ethoxy)pyridin-3-yl)methanesulfonamide hydrochloride] | 1 to 100 nM | 1 to 100 nM |
| COc1ccc([C@H]2C[C@@]3(C2)C(=O)N(C)c2cnc4cc(F)c(-c5cnc(OCCNC(C)C)c(NS(C)(=O)=O)c5)cc4c23)cc1 [Example 421, hydrochloride] | 1 to 100 nM | > 100 nM |
| CC(C)NCCOc1ncc(-c2cc3c(cc2F)ncc2c3[C@]3(C[C@@H](c4ccc(F)cc4)C3)C(=O)N2C)cc1NS(C)(=O)=O [Example 423, trans-N-(5-(7′-Fluoro-3-(4-fluorophenyl)-3′-methyl-2′-oxo-2′,3′-dihydrospiro[cyclobutane-1,1′-pyrrolo[2,3-c]quinolin]-8′-yl)-2-(2-(isopropylamino)ethoxy)pyridin-3-yl)methanesulfonamide] | 1 to 100 nM | 1 to 100 nM |
| CC(C)NCCOc1ncc(-c2cc3c(cc2F)ncc2c3[C@]3(C[C@H](c4cccc(F)c4)C3)C(=O)N2C)cc1NS(C)(=O)=O [Example 424, cis-N-(5-(7′-Fluoro-3-(3-fluorophenyl)-3′-methyl-2′-oxo-2′,3′-dihydrospiro[cyclobutane-1,1′-pyrrolo[2,3-c]quinolin]-8′-yl)-2-(2-(isopropylamino)ethoxy)pyridin-3-yl)methanesulfonamide] | 1 to 100 nM | 1 to 100 nM |
| CC(C)NCCOc1ncc(-c2cc3c(cc2F)ncc2c3[C@]3(C[C@@H](c4cccc(F)c4)C3)C(=O)N2C)cc1NS(C)(=O)=O [Example 425, trans-N-(5-(7′-Fluoro-3-(3-fluorophenyl)-3′-methyl-2′-oxo-2′,3′-dihydrospiro[cyclobutane-1,1′-pyrrolo[2,3-c]quinolin]-8′-yl)-2-(2-(isopropylamino)ethoxy)pyridin-3-yl)methanesulfonamide] | 1 to 100 nM | > 100 nM |
| CC(C)NCCOc1ncc(-c2cc3c(cc2F)ncc2c3[C@]3(C[C@H](c4ccccc4F)C3)C(=O)N2C)cc1NS(C)(=O)=O [Example 426, cis-N-(5-(7′-Fluoro-3-(2-fluorophenyl)-3′-methyl-2′-oxo-2′,3′-dihydrospiro[cyclobutane-1,1′-pyrrolo[2,3-c]quinolin]-8′-yl)-2-(2-(isopropylamino)ethoxy)pyridin-3-yl)methanesulfonamide] | 1 to 100 nM | 1 to 100 nM |
| CC(C)NCCOc1ncc(-c2cc3c(cc2F)ncc2c3[C@]3(C[C@@H](c4ccccc4F)C3)C(=O)N2C)cc1NS(C)(=O)=O [Example 427, trans-N-(5-(7′-Fluoro-3-(2-fluorophenyl)-3′-methyl-2′-oxo-2′,3′-dihydrospiro[cyclobutane-1,1′-pyrrolo[2,3-c]quinolin]-8′-yl)-2-(2-(isopropylamino)ethoxy)pyridin-3-yl)methanesulfonamide] | 1 to 100 nM | > 100 nM |
| COc1cccc([C@H]2C[C@]3(C2)C(=O)N(C)c2cnc4cc(F)c(-c5cnc(OCCNC(C)C)c(NS(C)(=O)=O)c5)cc4c23)n1 [Example 428, cis-N-(5-(7′-Fluoro-3-(6-methoxypyridin-2-yl)-3′-methyl-2′-oxo-2′,3′-dihydrospiro[cyclobutane-1,1′-pyrrolo[2,3-c]quinolin]-8′-yl)-2-(2-(isopropylamino)ethoxy)pyridin-3-yl)methanesulfonamide] | 1 to 100 nM | 1 to 100 nM |
| COc1cccc([C@H]2C[C@@]3(C2)C(=O)N(C)c2cnc4cc(F)c(-c5cnc(OCCNC(C)C)c(NS(C)(=O)=O)c5)cc4c23)n1 [Example 429, trans-N-(5-(7′-Fluor-3-(6-methoxypyridin-2-yl)-3′-methyl-2′-oxo-2′,3′-dihydrospiro[cyclobutane-1,1′-pyrrolo[2,3-c]quinolin]-8′-yl)-2-(2-(isopropylamino)ethoxy)pyridin-3-yl)methanesulfonamide] | 1 to 100 nM | 1 to 100 nM |
| COc1ccc([C@H]2C[C@]3(C2)C(=O)N(C)c2cnc4cc(F)c(-c5cnc(OCCNC(C)C)c(NS(C)(=O)=O)c5)cc4c23)cn1 [Example 430] | 1 to 100 nM | 1 to 100 nM |
| COc1ccc([C@H]2C[C@@]3(C2)C(=O)N(C)c2cnc4cc(F)c(-c5cnc(OCCNC(C)C)c(NS(C)(=O)=O)c5)cc4c23)cn1 [Example 431, trans-N-(5-(7′-Fluoro-3-(6-methoxypyridin-3-yl)-3′-methyl-2′-oxo-2′,3′-dihydrospiro[cyclobutane-1,1′-pyrrolo[2,3-c]quinolin]-8′-yl)-2-(2-(isopropylamino)ethoxy)pyridin-3-yl)methanesulfonamide] | > 100 nM | > 100 nM |
| COc1cc([C@H]2C[C@]3(C2)C(=O)N(C)c2cnc4cc(F)c(-c5cnc(OCCNC(C)C)c(NS(C)(=O)=O)c5)cc4c23)ccn1 [Example 432, cis-N-(5-(7′-Fluoro-3-(2-methoxypyridin-4-yl)-3′-methyl-2′-oxo-2′,3′-dihydrospiro[cyclobutane-1,1′-pyrrolo[2,3-c]quinolin]-8′-yl)-2-(2-(isopropylamino)ethoxy)pyridin-3-yl)methanesulfonamide] | 1 to 100 nM | 1 to 100 nM |
| COc1cc([C@H]2C[C@@]3(C2)C(=O)N(C)c2cnc4cc(F)c(-c5cnc(OCCNC(C)C)c(NS(C)(=O)=O)c5)cc4c23)ccn1 [Example 433, trans-N-(5-(7′-Fluoro-3-(2-methoxypyridin-4-yl)-3′-methyl-2′-oxo-2′,3′-dihydrospiro[cyclobutane-1,1′-pyrrolo[2,3-c]quinolin]-8′-yl)-2-(2-(isopropylamino)ethoxy)pyridin-3-yl)methanesulfonamide] | 1 to 100 nM | > 100 nM |
| CC(C)NCCOc1ncc(-c2cc3c(cc2F)ncc2c3[C@]3(C[C@H](c4ccccn4)C3)C(=O)N2C)cc1NS(C)(=O)=O [Example 434, cis-N-(5-(7′-Fluoro-3′-methyl-2′-oxo-3-(pyridin-2-yl)-2′,3′-dihydrospiro [cyclobutane-1,1′-pyrrolo[2,3-c]quinolin]-8′-yl)-2-(2-(isopropylamino)ethoxy)pyridin-3-yl)methanesulfonamide] | 1 to 100 nM | 1 to 100 nM |
| CC(C)NCCOc1ncc(-c2cc3c(cc2F)ncc2c3[C@]3(C[C@@H](c4ccccn4)C3)C(=O)N2C)cc1NS(C)(=O)=O [Example 435, trans-N-(5-(7′-Fluoro-3′-methyl-2′-oxo-3-(pyridin-2-yl)-2′,3′-dihydrospiro[cyclobutane-1,1′-pyrrolo[2,3-c]quinolin]-8′-yl)-2-(2-(isopropylamino)ethoxy)pyridin-3-yl)methanesulfonamide] | 1 to 100 nM | > 100 nM |
| CC(C)NCCOc1ncc(-c2cc3c(cc2F)ncc2c3[C@]3(C[C@H](c4cccnc4)C3)C(=O)N2C)cc1NS(C)(=O)=O [Example 436, cis-N-(5-(7′-Fluoro-3′-methyl-2′-oxo-3-(pyridin-3-yl)-2′,3′-dihydrospiro[cyclobutane-1,1′-pyrrolo[2,3-c]quinolin]-8′-yl)-2-(2-(isopropylamino)ethoxy)pyridin-3-yl)methanesulfonamide] | 1 to 100 nM | 1 to 100 nM |
